Data on two molecules can be found in publication PMC9266368, “Synthesis and Biological Evaluation of Small Molecules as Potential Anticancer Multitarget Agents” (International Journal of Molecular Sciences, 2022).

In data set [1] the target is T1, total PD-L1 (tPD-L1) (Homo sapiens, UniProt Q9NZQ7).
T1 construct: endogenous in cells; host or cells: HT-29, A-549, MCF-7
Nature of the data set: Total PD-L1 relative quantification by flow cytometry. The data set is classed as cell-based. The conditions noted are these: for tPD-L1 relative detection, A-549 / tPD-L1 relative detection, HT-29 / tPD-L1 relative detection, MCF-7: 24 h, 100 or 10 μM (Table 7), relative to DMSO control. How it is done:
(§1) The study was carried out again on HT-29, A-549, and MCF-7 cell lines by flow cytometry after 24 h of treatment with the corresponding compounds. The presence of the targets in the whole cell were relatively determined by using DMSO-treated cells as a negative control and BMS-8 as a positive one for PD-L1 (Table 3).
(§2) To study the effect of the compounds on every biological target in cancer cell lines the compounds were used at a 100 or 10 μM dose, depending on their IC50 and the treated cell line.
(§3) For the assay, 10^5 cells per well were incubated for 24 h with the corresponding dose of the tested compound in a total volume of 500 μL of their growth media.
(§4) For the detection of total PD-L1, VEGFR-2, and c-Myc, the procedure was the same as for membrane targets, but after fixation, a treatment with 0,5% in PBS TritonTM X-100 was performed. The antibodies used for PD-L1 and VEGFR-2 were the ones previously described, and for the detection of c-Myc, it was FITC Rabbit monoclonal anti-c-Myc (ab223913).

For data set [2], the system named is A-549 (lung adenocarcinoma). The data set can be described thus: MTT cell viability assay, A-549. Type of data set: cell-based. The conditions noted are these: Homo sapiens, A549, 48 h, 2 days incubation, average ±SD of three experiments. How it is done: (§5) The effects of triazole derivatives 1–26 on the cell viability were determined by MTT assay, and the IC50 values were determined toward the human tumor cell lines HT-29 (colon adenocarcinoma), A-549 (lung adenocarcinoma), and MCF-7 (breast adenocarcinoma), as well as toward the non-tumor cell line HEK-293 (human embryonic kidney cells).
(§6) In 96-well plates, 3 × 10^3 (A549 and HEK-293) or 5 × 10^3 (HT-29, MCF-7) cells per well were incubated with serial dilutions of the tested compounds in a total volume of 100 μL of their growth media. The 3-(4,5-dimethylthiazol-2-yl)-2,5-diphenyltetrazolium bromide (MTT; Sigma Chemical Co.) dye reduction assay in 96-well microplates was used. After 2 days of incubation (37 °C, 5% CO2 in a humid atmosphere), 10 μL of MTT (5 mg/mL in phosphate-buffered saline, PBS) was added to each well, and the plate was incubated for a further 3 h (37 °C). After that, the supernatant was discarded and replaced by 100 µL of DMSO to dissolve formazan crystals. The absorbance was then read at 550 nm by spectro-photometry. For all concentrations of compound, cell viability was expressed as the percentage of the ratio between the mean absorbance of treated cells and the mean absorbance of untreated cells. Three independent experiments were performed, and the IC50 values (i.e., concentration half inhibiting cell proliferation) were graphically determined by using GraphPad Prism 4 software (2019).

In data set [3] the test system is HEK-293 (human embryonic kidney cells). Nature of the data set: MTT cell viability assay, HEK-293. The conditions noted are these: HEK293, 48 h, 2 days incubation, non-tumor cell line, average ±SD of three experiments. Type of data set: cell-based. How it is done:
as §5, §6

For data set [4], the system named is c-Myc. The data set can be described thus: c-Myc relative quantification by flow cytometry. Type of data set: cell-based, human. As to conditions: 24 h, 100 or 10 μM (Table 7), relative to DMSO control. The method, then: as §1, §2, §3, §4
Data set [5] deals with MCF-7 (breast adenocarcinoma). The data set can be described thus: MTT cell viability assay, MCF-7. The conditions noted are these: Homo sapiens, MCF7, 48 h, 2 days incubation, average ±SD of three experiments. The data set is classed as cell-based. How it is done: as §5, §6
The target in data set [6] is T2, membrane VEGFR-2 (mVEGFR-2) (Homo sapiens, UniProt P35968).
T2 construct: endogenous in cells; host or cells: HT-29, A-549, MCF-7
T2 sequence (P35968 20-1356): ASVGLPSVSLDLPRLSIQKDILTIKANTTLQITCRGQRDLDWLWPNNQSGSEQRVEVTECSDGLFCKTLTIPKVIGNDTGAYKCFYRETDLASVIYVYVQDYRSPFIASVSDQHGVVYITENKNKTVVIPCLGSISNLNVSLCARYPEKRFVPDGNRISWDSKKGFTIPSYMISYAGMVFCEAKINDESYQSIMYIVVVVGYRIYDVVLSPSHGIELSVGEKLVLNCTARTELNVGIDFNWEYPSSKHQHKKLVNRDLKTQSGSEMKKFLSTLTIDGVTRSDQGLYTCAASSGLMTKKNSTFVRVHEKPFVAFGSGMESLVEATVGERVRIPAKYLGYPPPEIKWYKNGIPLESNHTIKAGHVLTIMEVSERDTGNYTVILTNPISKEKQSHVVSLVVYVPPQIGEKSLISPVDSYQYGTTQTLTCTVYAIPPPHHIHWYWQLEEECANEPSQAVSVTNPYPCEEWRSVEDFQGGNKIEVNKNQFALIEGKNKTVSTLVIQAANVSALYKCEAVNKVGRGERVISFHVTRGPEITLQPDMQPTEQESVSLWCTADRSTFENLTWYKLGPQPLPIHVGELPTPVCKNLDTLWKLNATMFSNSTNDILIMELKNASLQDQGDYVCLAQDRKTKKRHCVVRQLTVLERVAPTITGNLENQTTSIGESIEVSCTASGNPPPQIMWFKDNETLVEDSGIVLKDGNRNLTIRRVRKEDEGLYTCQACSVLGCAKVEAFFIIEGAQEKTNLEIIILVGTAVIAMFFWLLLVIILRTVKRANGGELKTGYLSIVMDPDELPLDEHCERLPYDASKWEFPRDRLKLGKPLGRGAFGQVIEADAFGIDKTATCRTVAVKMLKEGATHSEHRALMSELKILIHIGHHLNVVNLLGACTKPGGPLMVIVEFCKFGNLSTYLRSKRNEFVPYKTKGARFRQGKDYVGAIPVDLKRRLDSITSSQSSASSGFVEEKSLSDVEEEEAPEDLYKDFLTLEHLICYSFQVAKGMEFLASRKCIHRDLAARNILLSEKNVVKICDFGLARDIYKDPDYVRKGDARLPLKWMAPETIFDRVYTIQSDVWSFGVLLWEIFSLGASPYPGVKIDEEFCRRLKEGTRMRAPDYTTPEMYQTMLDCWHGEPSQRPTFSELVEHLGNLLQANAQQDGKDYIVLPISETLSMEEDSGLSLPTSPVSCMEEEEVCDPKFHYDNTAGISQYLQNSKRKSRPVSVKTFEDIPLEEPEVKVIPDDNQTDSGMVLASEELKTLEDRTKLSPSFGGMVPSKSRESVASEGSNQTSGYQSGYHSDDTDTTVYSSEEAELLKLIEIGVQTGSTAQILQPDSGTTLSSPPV
Nature of the data set: Membrane VEGFR-2 relative quantification by flow cytometry. The data set is classed as cell-based. The conditions noted are these: 24 h, 100 or 10 μM (Table 7), sorafenib 10 μM, percentage referred to DMSO control. How it is done:
The presence of both targets in the membrane was relatively determined by using DMSO-treated cells as a negative control.
as §3

The target of data set [7] is T3, membrane PD-L1 (mPD-L1) (Homo sapiens, UniProt Q9NZQ7).
T3 construct: endogenous in cells; host or cells: HT-29, A-549, MCF-7
T3 sequence (Q9NZQ7 19-290): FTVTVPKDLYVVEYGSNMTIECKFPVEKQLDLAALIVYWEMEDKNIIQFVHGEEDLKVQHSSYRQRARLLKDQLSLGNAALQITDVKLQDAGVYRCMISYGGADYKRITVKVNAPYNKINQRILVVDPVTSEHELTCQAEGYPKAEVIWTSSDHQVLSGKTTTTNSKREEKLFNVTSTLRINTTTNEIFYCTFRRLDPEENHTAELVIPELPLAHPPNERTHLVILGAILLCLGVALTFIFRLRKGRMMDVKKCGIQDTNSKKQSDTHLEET
The data set can be described thus: Membrane PD-L1 relative quantification by flow cytometry. The data set is classed as cell-based. The conditions noted are these: 24 h, 100 or 10 μM (Table 7), percentage referred to DMSO control. How it is done: Based on antiproliferative activity of synthetized derivatives, we decided to study the effect of the amino derivatives 14–26 on the expression of both membrane targets PD-L1 and VEGFR-2 (mPD-L1 and mVEGFR-2). The evaluation was performed on three cancer cell lines (HT-29, A-549, and MCF-7) by flow cytometry after 24 h of treatment with the corresponding compounds. Compounds were used at a 100 or 10 μM concentration depending on their IC50 value (see Table 1 in Materials and Methods section). The presence of both targets in the membrane was relatively determined by using DMSO-treated cells as a negative control.
as §2, §3
To detect membrane PD-L1 and VEGFR-2, after the cell treatments, they were collected, fixed with 4% in PBS paraformaldehyde, and stained with FITC Mouse monoclonal Anti-Human VEGFR-2 (ab184903) and Alexa Fluor® 647 Rabbit monoclonal Anti-PD-L1 (ab215251).

Data set [8] deals with HT-29 (colon adenocarcinoma). Nature of the data set: MTT cell viability assay, HT-29. The data set is classed as cell-based. The conditions noted are these: Homo sapiens, HT-29, 48 h, 2 days incubation, average ±SD of three experiments. The method, then: as §5, §6
Data set [9] deals with HT-29 cells co-cultured with Jurkat T cells. The data set can be described thus: Co-culture HT-29 + PD-1 Jurkat T cells: living HT-29 cells. The data set is classed as cell-based, human. The conditions noted are these: 100 μM, 24 h; related to non-treated samples. How it is done:
(§7) Cellular PD-1/PD-L1 blocking activity was studied in a co-culture system with PD-1 Jurkat T cells stimulated by interferon γ and PD-L1-expressing cancer cells. Thereby, we selected chloro derivatives 21–23 to study the proliferation of cancer cells co-cultured in the presence of PD-1 expressing Jurkat T cells in order to evaluate whether the observed PD-L1 inhibition is translated to the blockage of PD-1/PD-L1 system. […] Thus, tumor cells HT-29 were treated for 24 h with the selected compounds at 100 μM in the presence of Jurkat T cells and then living cells were counted by using cytometry and a Neubauer chamber.

In data set [10] the target is T4, PD-L1 (Homo sapiens, UniProt Q9NZQ7).
T4 construct: purchased ab167713
T4 sequence (Q9NZQ7 19-290): as above
Nature of the data set: Protein thermal shift (PTS) assay. The data set is classed as binding. The text has this:
This assay measures the melting point (Tm) of the target protein which is a proxy of its stability that can be altered by the binding of a ligand. A change in the melting point relative to the unliganded form implies that a ligand has bound itself to the targeted protein. According to the fundamentals of this technique, an increase in Tm means that the binding of the ligand leads to a stabilization of the target protein, while a decrease in Tm is probably due to the fact that the binding between the ligand and its target leads to a destabilization of the protein. In this case, the tested compounds were able to change the PD-L1 melting temperature.
PTS assay was performed by following the instructions indicated in Protein Thermal ShiftTM Dye Kit (Applied Biosystems reference 4461146), using 2 μL of a 0.1 mg/mL of an aqueous solution of PD-L1 (reference ab167713) and 1.5 μL of a 0.1 mg/mL aqueous solution of the corresponding product. The melting curves were registered by a StepOneTM Real-Time PCR System.

Data set [11] concerns Jurkat T cells. The data set can be described thus: Co-culture HT-29 + PD-1 Jurkat T cells: living Jurkat cells. The conditions noted are these: 100 μM, 24 h; related to non-treated samples. Type of data set: cell-based. The method, then:
as §7

T1 sequence (Q9NZQ7 19-290): as above

For the molecule `Cc1ccc(Cn2cc(-c3ccc(N)cc3)nn2)cc1` [Compound 17, 4-(1-(4-methylbenzyl)-1H-1,2,3-triazol-4-yl)aniline], the melting point lay within 130 to 132 °C. Also, the “tPD-L1 relative detection, A-549” value in data set [1] (A-549) was 56 ± 19%. Also, the “Inhibition of total PD-L1, A-549” value in [1] (A-549, compared to non-treated cells) was roughly 50%. In [1], the “tPD-L1 relative detection, HT-29” value is given as greater than 100% and the “tPD-L1 relative detection, MCF-7” value is greater than 100%. This molecule showed an IC50 in data set [2] of 1.7 µM. Half-maximal inhibition in data set [3] (IC50) required 4 ± 2 µM. Moreover, in [4], the “c-Myc relative detection, A-549” value is on record as greater than 100%; the “c-Myc relative detection, HT-29” value was greater than 100%; the “c-Myc relative detection, MCF-7” value is recorded as 63 ± 2%. For the same molecule, the IC50 in data set [5] came to 4 ± 1 µM. In addition, in [6] (A-549), the “mVEGFR-2 relative detection, A-549” value is greater than 100%. For the same molecule, the “mVEGFR-2 relative detection, HT-29” value in data set [6] (HT-29) is on record as 81 ± 1%. Further, in data set [6] (MCF-7), the “mVEGFR-2 relative detection, MCF-7” value is reported as greater than 100%. In addition, in data set [7], the “mPD-L1 relative detection, A-549” value was determined as 88 ± 21%; the “mPD-L1 relative detection, HT-29” value is 87 ± 14%; the “mPD-L1 relative detection, MCF-7” value worked out at 89 ± 5%. In [8], this molecule returned an IC50 of 8 ± 2 µM.
On to `Cc1c(COc2ccc(CN3CCCCC3C(=O)O)cc2Br)cccc1-c1ccccc1` (centres unmarked) [BMS-8, reference compound], for which the “tPD-L1 relative detection, A-549” value in data set [1] (A-549) is reported as 66 ± 8%. Besides, in data set [1], the “tPD-L1 relative detection, HT-29” value was 62 ± 3% and the “tPD-L1 relative detection, MCF-7” value is given as 68 ± 5%. In data set [2], this molecule came in with an IC50 of 6 ± 1 µM. In data set [3], inhibition was half-maximal at 60 ± 10 µM (IC50). For the same molecule, in [4], the “c-Myc relative detection, A-549” value is 135 ± 15%; the “c-Myc relative detection, HT-29” value was 99 ± 7%; the “c-Myc relative detection, MCF-7” value was 60 ± 7%. The IC50 in [5] turned out to be 20 ± 3 µM. In [9], the “Relative number of living HT-29 cells in co-culture with Jurkat T” value turned out to be 51 ± 8%. In data set [10] (PD-L1 melting temperature, DMSO 34 °C), the “PTS Tm” value amounted to 38 °C. Also, the “PTS ΔTm” value in data set [10] (shift of PD-L1 melting temperature vs DMSO) is “+4 °C”. Besides, in [7], the “mPD-L1 relative detection, A-549” value came to 99 ± 10%; the “mPD-L1 relative detection, HT-29” value came out at 95 ± 12%; the “mPD-L1 relative detection, MCF-7” value is listed as 90 ± 8%. Moreover, the “Relative number of living Jurkat cells in co-culture with HT-29” value in [11] is 110 ± 4%. This molecule also came in with an IC50 in data set [8] of 19 ± 2 µM.
